Experimental data as given in US9688653B2, “Ethoxyphenyl thienyl compounds and methods for the treatment of bacterial infections” (Duke University, priority 2013, dated 2017).
pIC50: −log10 of the molar value.

What was measured:
[1] = tested on: UPEC K1 strain UTI80; details: cited from earlier work
[2] = tested on: Bladder carcinoma 5637 cells; details: earlier report; cited from earlier work
[3] = tested on: K1 capsule of UTI89; assay: Secondary assay 3: orcinol assay for released K1 capsule polysaccharide; assay type: cell-based, Escherichia coli; details: 100 μM, K1 strain UTI89
Procedure: E. Secondary Assay 3: Orcinol Secondary Screening for Inhibitors of Bacterial Capsule Biogenesis.
Purpose: This assay was performed only on the probe candidate. […] The biochemical determination of cell-surface associated capsule was performed using UTI89 or the Delta Region I and Delta Region II capsule mutant bacterial strains.
Purpose: This assay was performed only on the probe candidate. […] The biochemical determination of cell-surface associated capsule was performed using UTI89 or the delta Region I and Region II capsule mutant bacterial strains.
Assay Description: The biochemical measurement of cell-surface associated capsule was performed. UTI89 or capsule mutants were grown in culture tubes with and without the test compound (50 μM). The cultures were centrifuged, and the cell pellets were washed in PBS and resuspended in Tris buffer, pH5. […] Released polysaccharide was harvested by separation from whole bacteria by centrifugation followed by deproteination with phenol/chloroform and precipitation with ethanol. The precipitated material was subjected to acid hydrolysis (pH 2 at 80° C. for 1 hr) and incubated with orcinol, which reacts with periodic intermediates to produce a violet color quantified at OD 570 (3) Inhibitors reducing or abrogating surface encapsulation yielded low orcinol levels similar to the capsule export and synthesis mutants (Region I and II). The positive control drug C7 (100 μM final well concentration) was used in this screen.
Endpoint Read: The samples were read at ambient temperature from the bottom for absorbance at A570 in a BioTek Quantplate reader and the degree of orcinol-reactive material was determined based on the absorbance compared to a wild-type encapsulated strain (UTI89) and a standard curve using purified sialic acid.
Orcinol assay for released capsule material. Orcinol reactivity was used as a biochemical confirmation of altered extracellular capsule after compound treatment. UTI89 or an isogenic capsule mutant was grown in 100 μM of test compound or 1% DMSO. The assay was performed as previously described. The molecule C7 (100 μM final concentration) was used as a positive control. The assay was performed 3 times with replicate samples.

O=C(O)c1cc(-c2ccc(-c3ccccc3)cc2)nc2cc3ccccc3cc12 [C7, 2-(4-phenylphenyl)-benzo[g]quinoline-4-carboxylic acid]
Concentration at which the inhibitory effect reaches saturation [1]: approximately 25 μM | pIC50 ([1]; read-out: Concentration giving approximately 50% inhibition of K1F phage lysis (IC50)): 4.60 to 4.90 | Toxicity to cultured bladder epithelial cells [2]: lacks obvious toxicity | Reduction of orcinol-reactive polysaccharides on surface of bacteria [3]: ~80%
